This passage reports IC50 results from patent US20260258035A1, “FIVE-MEMBERED AND SIX-MEMBERED NITROGEN-CONTAINING COMPOUND, AND INTERMEDIATE, PREPARATION METHOD AND USE THEREOF” (HANGZHOU SYNRX THERAPEUTICS BIOMEDICAL TECHNOLOGY CO., LTD., priority 2022, published 2026).

Usually IC50 stands for the concentration that inhibits the measured activity by half.

Like-named read-outs stand apart in the source and are kept apart here. Bounds are passed on as bounds.

In one experiment the target is PARG (Homo sapiens, UniProt Q86W56). As to the kind of experiment: Biochemical assay (PARG, TFMU-ADPr substrate).
PARG, sequence (Q86W56 whole entry): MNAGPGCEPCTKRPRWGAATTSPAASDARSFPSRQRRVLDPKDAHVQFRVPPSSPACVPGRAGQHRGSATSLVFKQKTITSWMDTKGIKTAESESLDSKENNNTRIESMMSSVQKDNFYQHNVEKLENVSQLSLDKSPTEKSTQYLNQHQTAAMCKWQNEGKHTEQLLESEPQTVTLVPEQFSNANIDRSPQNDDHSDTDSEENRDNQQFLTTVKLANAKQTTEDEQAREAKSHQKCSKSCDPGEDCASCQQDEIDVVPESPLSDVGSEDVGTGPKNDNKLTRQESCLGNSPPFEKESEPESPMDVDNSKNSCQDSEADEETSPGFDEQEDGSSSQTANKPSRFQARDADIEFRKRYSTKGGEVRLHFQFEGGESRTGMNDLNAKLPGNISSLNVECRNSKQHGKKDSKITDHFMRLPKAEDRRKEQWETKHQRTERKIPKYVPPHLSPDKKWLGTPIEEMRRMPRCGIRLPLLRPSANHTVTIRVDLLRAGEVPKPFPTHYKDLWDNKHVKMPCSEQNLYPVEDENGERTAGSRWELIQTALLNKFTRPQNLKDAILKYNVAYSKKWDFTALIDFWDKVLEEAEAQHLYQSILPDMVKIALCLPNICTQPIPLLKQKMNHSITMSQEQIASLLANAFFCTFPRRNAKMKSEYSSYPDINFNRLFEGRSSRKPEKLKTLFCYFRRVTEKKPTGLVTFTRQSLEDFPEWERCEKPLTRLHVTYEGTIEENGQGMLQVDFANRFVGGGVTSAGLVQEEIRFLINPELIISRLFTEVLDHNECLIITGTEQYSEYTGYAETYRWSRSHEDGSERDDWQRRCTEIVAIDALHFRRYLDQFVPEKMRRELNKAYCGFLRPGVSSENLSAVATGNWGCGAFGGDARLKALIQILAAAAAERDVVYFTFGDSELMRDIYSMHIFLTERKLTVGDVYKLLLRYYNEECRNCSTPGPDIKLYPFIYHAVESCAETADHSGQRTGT
Experiment [1] has as its system Human breast squamous carcinoma cells HCC1806. As to the kind of experiment: Cell function assay (In-Cell Western, PAR/pADPr after MMS). The experiment is classed as cell-based. On the procedure:
2. Cell Function Assay (In-Cell Western)
• 1) Human breast squamous carcinoma cells HCC1806 (ATCC) were seeded to the 384-well plate (Corning, #3764) at 20,000 cells/well, incubated for 24 h in a CO2 (5%) incubator at 37° C. to allow for complete adherence of the cells; • 2) 120 nL compounds or DMSO were added to the 384-well plate by Echo 550 (LABCYTE, #550) (final concentrations of compounds: 30000 nM, 10000 nM, 3000 nM, 1000 nM, 300 nM, 100 nM, 30 nM, 10 nM, 3 nM, 1 nM, 0 nM), and then the cells were incubated for 1 h in a CO2 (5%) incubator at 37° C.; • 3) 40 nL MMS (methyl mesylate, Sigma, #129925)(final concentration: 0.5 mM) was added to the plate by Echo 550, and the cells were treated for 1 h in a CO2 (5%) incubator at 37° C.

The next experiment concerns HCC1806. As to the kind of experiment: Cell viability assay (CellTiter-Glo). The experiment is classed as cell-based, Human. To be noted: HCC1806, 7 days, CellTiter-Glo, read-out: IC50 (nM) in cell viability assay. Background: In ATP-based viability assays light output follows the ATP content of the culture.
Setting [2] is: 4 nM PARG, 66.2 uM TFMU-ADPr, 3 min at room temperature.
Setting [3] is: HCC1806, In-Cell Western, MMS treatment, read-out: IC50 (nM) in cell function assay.
Setting [4] is: HCC1806, compound 1 h then 0.5 mM MMS 1 h, PAR/pADPr antibody, In-Cell Western, read-out: IC50 (nM) in cell function assay.

Consider `C#CC1(NS(=O)(=O)c2cc(N3CCN(C(=O)C(C)C)CC3)c3nnc(-c4nnc(C(F)F)s4)n3c2)CC1` [Example 102, 3-(5-(difluoromethyl)-1,3,4-thiadiazol-2-yl)-N-(1-ethynylcyclopropyl)-8-(4-isobutyrylpiperazin-1-yl)-[1,2,4]triazolo[4,3-a]pyridine-6-sulfonamide], for which the 50% inhibitory concentration (IC50) at PARG (setting [2]) was below 100 nM; against PARG (PARG, TFMU-ADPr substrate), 2.54 nM; in experiment [1] (setting [3]), 32.1 nM; in experiment [1] (setting [4]), below 100 nM; with HCC1806, 5000 nM; in the experiment on HCC1806 (Homo sapiens, HCC1806, 168 h), 5000 to 30000 nM.
With `C[C@@H]1CN(c2cc(S(=O)(=O)NC3(C#N)CC3)cn3c(-c4nnc(C(F)F)s4)nc(Cl)c23)CCN1C(=O)C1(C)CC1` [Example 123, (R)-1-chloro-N-(1-cyanocyclopropyl)-3-(5-(difluoromethyl)-1,3,4-thiadiazol-2-yl)-8-(3-methyl-4-(1-methylcyclopropane-1-carbonyl)piperazin-1-yl)imidazo[1,5-a]pyridine-6-sulfonamide], the IC50 on PARG (setting [2]) was below 100 nM; on PARG (PARG, TFMU-ADPr substrate) it was 9.12 nM; in experiment [1] (setting [3]), 7.13 nM; in experiment [1] (setting [4]) it was below 100 nM; with HCC1806, 584 nM; in the experiment with HCC1806 (Homo sapiens, HCC1806, 168 h), 500 to 5000 nM.
As for `CC1(C(=O)N2C3CC2CN(c2cc(S(=O)(=O)NC4(C#N)CC4)cn4c(-c5nnc(C(F)F)s5)ncc24)C3)CC1` [Example 87, N-(1-cyanocyclopropyl)-3-(5-(difluoromethyl)-1,3,4-thiadiazol-2-yl)-8-(6-(1-methylcyclopropane-1-carbonyl)-3,6-diazabicyclo[3.1.1]heptan-3-yl)imidazo[1,5-a]pyridine-6-sulfonamide], the half-inhibitory concentration (IC50) was below 100 nM against PARG (setting [2]); 7.24 nM against PARG (PARG, TFMU-ADPr substrate); 49.9 nM in experiment [1] (setting [3]); below 100 nM in experiment [1] (setting [4]).
Turning to `CC(C)[C@@H]1CN(c2cc(S(=O)(=O)NC3(C#N)CC3)cn3c(-c4nnc(C(F)F)s4)ncc23)CCN1C(=O)C1(C)CC1` [Example 96, (R)-N-(1-cyanocyclopropyl)-3-(5-(difluoromethyl)-1,3,4-thiadiazol-2-yl)-8-(3-isopropyl-4-(1-methylcyclopropane-1-carbonyl)piperazin-1-yl)imidazo[1,5-a]pyridine-6-sulfonamide], the IC50 is below 100 nM against PARG (setting [2]); 2.09 nM against PARG (PARG, TFMU-ADPr substrate); 1.68 nM in experiment [1] (setting [3]); below 100 nM in experiment [1] (setting [4]).
For the compound `O=S(=O)(NC1(CF)CC1)c1cc(N2CC3(COCCO3)C2)c2nnc(-c3nnc(C(F)F)s3)n2c1` [Example 113, 3-(5-(difluoromethyl)-1,3,4-thiadiazol-2-yl)-N-(1-(fluoromethyl)cyclopropyl)-8-(5,8-dioxa-2-azaspiro[3.5]nonan-2-yl)-[1,2,4]triazolo[4,3-a]pyridine-6-sulfonamide], the IC50 was below 100 nM against PARG (setting [2]); 5.2 nM against PARG (PARG, TFMU-ADPr substrate); 9 nM in experiment [1] (setting [3]); below 100 nM in experiment [1] (setting [4]).
In the case of `O=S(=O)(NC1(CF)CC1)c1cc(N2CCC3(CC2)COC3)c2nnc(-c3nnc(C(F)F)s3)n2c1` [Example 104, 3-(5-(difluoromethyl)-1,3,4-thiadiazol-2-yl)-N-(1-(fluoromethyl)cyclopropyl)-8-(2-oxa-7-azaspiro[3.5]nonan-7-yl)-[1,2,4]triazolo[4,3-a]pyridine-6-sulfonamide], the half-maximal inhibitory concentration (IC50) against PARG (setting [2]) was below 100 nM; at PARG (PARG, TFMU-ADPr substrate), 0.65 nM; in experiment [1] (setting [3]), 9.76 nM; in experiment [1] (setting [4]), below 100 nM.
With `CC(C)C[C@@H]1CN(c2cc(S(=O)(=O)NC3(C#N)CC3)cn3c(-c4nnc(C(F)F)s4)ncc23)CCN1C(=O)C1(C)CC1` [Example 97, (R)-N-(1-cyanocyclopropyl)-3-(5-(difluoromethyl)-1,3,4-thiadiazol-2-yl)-8-(3-isobutyl-4-(1-methylcyclopropane-1-carbonyl)piperazin-1-yl)imidazo[1,5-a]pyridine-6-sulfonamide], the IC50 at PARG (setting [2]) is below 100 nM; against PARG (PARG, TFMU-ADPr substrate) it was 5.01 nM; in experiment [1] (setting [3]) it was 7.52 nM; in experiment [1] (setting [4]), below 100 nM.
Take `N#CC1(NS(=O)(=O)c2ccc3c(C4CCC5(CNC5)C4)nc(-c4nnc(C(F)F)s4)n3c2)CC1` (stereo not drawn) [Example 26, N-(1-cyanocyclopropyl)-3-(5-(difluoromethyl)-1,3,4-thiadiazol-2-yl)-1-(2-azaspiro[3.4]octan-6-yl)imidazo[1,5-a]pyridine-6-sulfonamide]: the half-inhibitory concentration (IC50) against PARG (setting [2]) is below 100 nM; against PARG (PARG, TFMU-ADPr substrate), 5.37 nM; in experiment [1] (setting [3]), 4690 nM; in experiment [1] (setting [4]), above 1000 nM.
For the compound `N#CC1(NS(=O)(=O)c2cc(N3CCC(CO)CC3)c3cnc(-c4nnc(C(F)F)s4)n3c2)CC1` [Example 66, N-(1-cyanocyclopropyl)-3-(5-(difluoromethyl)-1,3,4-thiadiazol-2-yl)-8-(4-(hydroxymethyl)piperidin-1-yl)imidazo[1,5-a]pyridine-6-sulfonamide], the IC50 was below 100 nM on PARG (setting [2]); 2.89 nM against PARG (PARG, TFMU-ADPr substrate); 18.2 nM in experiment [1] (setting [3]); below 100 nM in experiment [1] (setting [4]).
As for `CC(C)C(=O)N1CCN(c2cc(S(=O)(=O)NC3(C#N)CC3)cn3c(-c4nnc(C(F)F)s4)ncc23)C[C@H]1C` [Example 74, (R)-N-(1-cyanocyclopropyl)-3-(5-(difluoromethyl)-1,3,4-thiadiazol-2-yl)-8-(4-isobutyryl-3-methylpiperazin-1-yl)imidazo[1,5-a]pyridine-6-sulfonamide], the half-inhibitory concentration (IC50) is below 100 nM against PARG (setting [2]); 6.61 nM on PARG (PARG, TFMU-ADPr substrate); 1.5 nM in experiment [1] (setting [3]); below 100 nM in experiment [1] (setting [4]).
Take `CC(C)C(=O)N1CCN(c2cc(S(=O)(=O)NC3(C#N)CC3)cn3c(-c4nnc(C(F)F)s4)nc(Cl)c23)CC1` [Example 122, 1-chloro-N-(1-cyanocyclopropyl)-3-(5-(difluoromethyl)-1,3,4-thiadiazol-2-yl)-8-(4-isobutyrylpiperazin-1-yl)imidazo[1,5-a]pyridine-6-sulfonamide]: the IC50 at PARG (setting [2]) was below 100 nM; on PARG (PARG, TFMU-ADPr substrate), 3.16 nM; in experiment [1] (setting [3]) it was 4.58 nM; in experiment [1] (setting [4]), below 100 nM.
`N#CC1(NS(=O)(=O)c2cc(N3CCOCC3)c3cnc(-c4nnc(C(F)F)s4)n3c2)CC1` [Example 67, N-(1-cyanocyclopropyl)-3-(5-(difluoromethyl)-1,3,4-thiadiazol-2-yl)-8-morpholinoimidazo[1,5-a]pyridine-6-sulfonamide]: the IC50 is below 100 nM against PARG (setting [2]); 8.83 nM against PARG (PARG, TFMU-ADPr substrate); 40.1 nM in experiment [1] (setting [3]); below 100 nM in experiment [1] (setting [4]).
Turning to `CC1(O)CC2(CCN(c3cc(S(=O)(=O)NC4(C#N)CC4)cn4c(-c5nnc(C(F)F)s5)ncc34)CC2)C1` [Example 53, N-(1-cyanocyclopropyl)-3-(5-(difluoromethyl)-1,3,4-thiadiazol-2-yl)-8-(2-hydroxy-2-methyl-7-azaspiro[3.5]nonan-7-yl)imidazo[1,5-a]pyridine-6-sulfonamide], the IC50 against PARG (setting [2]) was below 100 nM; against PARG (PARG, TFMU-ADPr substrate), 2.37 nM; in experiment [1] (setting [3]), 145 nM; in experiment [1] (setting [4]) it was 100 to 500 nM.
As for `[2H]C([2H])([2H])C1(NS(=O)(=O)c2cc(N3CCN(C(=O)C(C)C)CC3)c3cnc(-c4nnc(C(F)F)s4)n3c2)CC1` [Example 161, 3-(5-(difluoromethyl)-1,3,4-thiadiazol-2-yl)-8-(4-isobutyrylpiperazin-1-yl)-N-(1-(methyl-d3)cyclopropyl)imidazo[1,5-a]pyridine-6-sulfonamide], the 50% inhibitory concentration (IC50) against PARG (setting [2]) was below 100 nM; against PARG (PARG, TFMU-ADPr substrate) it was 0.88 nM; in experiment [1] (HCC1806, 1 h, read-out: IC50 (nM) in cell function assay) it was below 100 nM; in experiment [1] (HCC1806, read-out: IC50 (nM) in cell function assay), 1.02 nM.
